Here are results for 67 compounds from patent US20080090805A1, “CB-1 MODULATING COMPOUNDS AND THEIR USE” (ACADIA PHARMACEUTICALS INC., priority 2005, published 2008).

This assay addresses CB1 (mutant) (Homo sapiens, UniProt P21554). Put plainly: R-SAT functional receptor assay, CB1 (mutant, truncated after amino acid 417). The format is cell-based. To be noted: Appendix A, R-SAT CB1; for IC50: receptor form (mutant or wild-type) not stated, read-out: pIC50 (converted); for Emax: receptor form not stated, relative to SR141716 (100%), read-out: % Inhibition.

Sequence of CB1 (mutant) (P21554 1-417, change not shown): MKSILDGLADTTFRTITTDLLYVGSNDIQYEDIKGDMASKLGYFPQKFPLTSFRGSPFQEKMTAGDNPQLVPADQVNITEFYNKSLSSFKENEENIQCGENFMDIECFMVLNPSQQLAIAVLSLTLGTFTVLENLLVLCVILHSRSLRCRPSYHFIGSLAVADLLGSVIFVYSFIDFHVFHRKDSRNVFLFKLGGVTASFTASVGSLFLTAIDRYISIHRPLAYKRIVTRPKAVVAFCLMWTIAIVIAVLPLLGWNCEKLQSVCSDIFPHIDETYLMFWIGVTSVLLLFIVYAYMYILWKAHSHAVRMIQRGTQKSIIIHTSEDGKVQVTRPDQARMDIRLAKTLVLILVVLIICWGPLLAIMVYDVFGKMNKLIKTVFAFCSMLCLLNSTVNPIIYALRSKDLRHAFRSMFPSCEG

`CCCCC(=O)c1ccc2c(c1)N=C(C1CCCCC1)c1ccccc1S2`: the IC50 was 50.1 nM and the Emax was determined as 37%.
For `CCCC1=Nc2cc(C(=O)NCCC3=CCCCC3)ccc2Sc2ccccc21` the same measures were 50.1 nM and 118%.
For `CCCC1=Nc2cc(C(=O)NCCCOCC)ccc2Sc2ccccc21` the same measures were 50.1 nM and 92%.
For `O=C(NCc1ccncc1)c1ccc2c(c1)N=C(c1cccc(F)c1)c1ccccc1S2` the same measures were 50.1 nM and 95%.
For the compound `O=C(NCc1ccccn1)c1ccc2c(c1)N=C(c1ccc(F)cc1)c1ccccc1S2`, the IC50 is 63.1 nM and the Emax stood at 90%.
Taken in the same sequence, the figures for `CCONC(=O)c1ccc2c(c1)N=C(c1ccc(F)cc1)c1ccccc1S2` were 63.1 nM and 98%.
Taken in the same sequence, the figures for `COc1ccc(C2=Nc3cc(C(=O)NCc4ccccn4)ccc3Sc3ccccc32)cc1` were 63.1 nM and 93%.
As to `Cc1cccnc1C1=Nc2cc(C(=O)NCCC(C)C)ccc2Sc2ccccc21`, the IC50 was 63.1 nM and the Emax was 94%.
For `CCCC1=Nc2cc(C(=O)NC(C)c3ccccc3)ccc2Sc2ccccc21` (centres unmarked) the same measures were 63.1 nM and 97%.
For `CCONC(=O)c1ccc2c(c1)N=C(c1ccc(Cl)cc1)c1ccccc1S2` the same measures were 63.1 nM and 91%.
As to `CCCC1=Nc2cc(C(=O)NCCCN(CC(C)C)CC(C)C)ccc2Sc2ccccc21`, the IC50 was 63.1 nM and the Emax came to 103%.
For `CCCC1=Nc2cc(C(=O)NCCN(CC(C)C)CC(C)C)ccc2Sc2ccccc21` the same measures were 63.1 nM and 105%.
For `CCCC1=Nc2cc(C(=O)NCCCOC(C)C)ccc2Sc2ccccc21` the same measures were 63.1 nM and 117%.
For `COCCNC(=O)c1ccc2c(c1)N=C(c1sccc1C)c1ccccc1S2` the same measures were 63.1 nM and 88%.
Turning to `COCCNC(=O)c1ccc2c(c1)N=C(c1ccc(Cl)cc1F)c1ccccc1S2`, the IC50 was 63.1 nM and the Emax stood at 104%.
Taken in the same sequence, the figures for `O=C(NN1CCOCC1)c1ccc2c(c1)N=C(C1CCCCC1)c1ccccc1S2` were 63.1 nM and 56%.
For `CCCCN(C)C(=O)c1ccc2c(c1)N=C(c1ccc(Cl)cc1)c1ccccc1S2` the same measures were 63.1 nM and 92%.
For `CCCCN(C)C(=O)c1ccc2c(c1)N=C(c1cccc(F)c1)c1ccccc1S2` the same measures were 63.1 nM and 90%.
Consider `CCCCNC(=O)c1ccc2c(c1)N=C(c1ccc(Cl)cc1)c1ccccc1S2(=O)=O`, for which the IC50 is 63.1 nM and the Emax came to 106%.
Take `CCCNC(=O)c1ccc2c(c1)N=C(c1ccccc1Cl)c1ccccc1S2`: the IC50 is 79.4 nM and the Emax amounted to 78%.
For `O=C(c1ccc2c(c1)N=C(c1ccccc1F)c1ccccc1S2)N1CCCCC1` the same measures were 79.4 nM and 73%.
For `N#Cc1ccc(C2=Nc3cc(C(=O)NCc4ccccn4)ccc3Sc3ccccc32)cc1` the same measures were 79.4 nM and 99%.
As for `O=C(NN1CCOCC1)c1ccc2c(c1)N=C(c1cccc(Cl)c1)c1ccccc1S2`, the IC50 is 79.4 nM and the Emax came out at 80%.
Taken in the same sequence, the figures for `CCCC1=Nc2cc(C(=O)NC(C)C34CC5CC(CC(C5)C3)C4)ccc2Sc2ccccc21` (centres unmarked) were 79.4 nM and 112%.
Taken in the same sequence, the figures for `CCOCCNC(=O)c1ccc2c(c1)N=C(c1ccc(OC)cc1)c1ccccc1S2` were 79.4 nM and 90%.
For `CC(C)CNC(=O)c1ccc2c(c1)N=C(c1ccc(Cl)cc1Cl)c1ccccc1S2` the same measures were 79.4 nM and 87%.
On to `C=C(/C=C\C1=CN=C(CCC)c2ccccc2S1)C(=O)NC1CCCC1`, for which the IC50 was 79.4 nM and the Emax was 109%.
For `CCONC(=O)c1ccc2c(c1)N=C(c1cccc(Cl)c1)c1ccccc1S2` the same measures were 79.4 nM and 90%.
On to `O=C(NCCc1cccnc1)c1ccc2c(c1)N=C(c1ccccc1F)c1ccccc1S2`, for which the IC50 was 79.4 nM and the Emax was 110%.
Taken in the same sequence, the figures for `CCCCN(C)C(=O)c1ccc2c(c1)N=C(c1ccc(OC)cc1)c1ccccc1S2` were 100 nM and 97%.
For `O=C(NC1CCCCNC1=O)c1ccc2c(c1)N=C(c1ccc(Cl)cc1)c1ccccc1S2` (centres unmarked) the same measures were 100 nM and 81%.
Taken in the same sequence, the figures for `CCCCN(CCCNC(=O)c1ccc2c(c1)N=C(CCC)c1ccccc1S2)Cc1ccccc1` were 100 nM and 99%.
Consider `O=C(NNC(O)c1ccc2c(c1)N=C(c1cccc(Br)c1)c1ccccc1S2)c1ccccc1` (centres unmarked), for which the IC50 was 100 nM and the Emax is 76%.
For `COCCNC(=O)c1ccc2c(c1)N=C(c1ccccc1F)c1ccccc1S2` the same measures were 100 nM and 99%.
Taken in the same sequence, the figures for `CCCCN(C)C(=O)c1ccc2c(c1)N=C(c1ccc(Cl)s1)c1ccccc1S2` were 100 nM and 87%.
For the compound `CCCC1=Nc2cc(C(=O)NC(C)CC)ccc2Sc2ccccc21` (centres unmarked), the IC50 was 100 nM and the Emax was determined as 105%.
For `Cc1ccsc1C1=Nc2cc(C(=O)NCc3cccnc3)ccc2Sc2ccccc21` the same measures were 100 nM and 102%.
Take `Cc1cccnc1C1=Nc2cc(C(=O)NCc3cccs3)ccc2Sc2ccccc21`: the IC50 was 100 nM and the Emax was 97%.
For `Cc1ccsc1C1=Nc2cc(C(=O)NCCc3ccncc3)ccc2Sc2ccccc21` the same measures were 100 nM and 101%.
For `CCCCNC(=O)c1ccc2c(n1)N=C(c1ccccc1)c1ccccc1S2` the same measures were 12.6 nM and 98%.
Taken in the same sequence, the figures for `O=C(NCc1ccccn1)c1ccc2c(c1)N=C(N1CCCCC1)c1ccccc1S2` were 158 nM and 78%.
Regarding `O=C(NN1CCCC1)c1ccc2c(c1)N=C(c1ccc(F)cc1)c1ccccc1S2`, the IC50 was 158 nM and the Emax was 92%.
For `CCCC1=NC2=C(CCC(C(=O)NCCc3ccc(OCC)cc3)=C2)Sc2ccccc21` the same measures were 158 nM and 102%.
Taken in the same sequence, the figures for `CCCC1=Nc2cc(C(=O)NCCCSC3CCCCC3)ccc2Sc2ccccc21` were 158 nM and 95%.
Consider `COc1ccccc1C1=Nc2cc(C(=O)NCC(C)C)ccc2Sc2ccccc21`, for which the IC50 is 158 nM and the Emax worked out at 91%.
Take `O=C(NN1CCCCC1)c1ccc2c(c1)N=C(c1ccccc1)c1ccccc1O2`: the IC50 is 158 nM and the Emax was determined as 57%.
For `CCOCCNC(=O)c1ccc2c(c1)N=C(c1ccc(C(=O)OCC)cc1)c1ccccc1S2` the same measures were 158 nM and 77%.
Take `CCCC1=Nc2cc(C(=O)N3CCN(c4cc(C)ccc4C)CC3)ccc2Sc2ccccc21`: the IC50 is 158 nM and the Emax turned out to be 90%.
For `O=C(NC1CCCC1)c1ccc2c(c1)N=C(c1ccccn1)c1ccccc1S2` the same measures were 158 nM and 81%.
Taken in the same sequence, the figures for `CCCCN(C)C(=O)c1ccc2c(c1)N=C(c1sccc1C)c1ccccc1S2` were 158 nM and 72%.
Taken in the same sequence, the figures for `COc1ccc(C2=Nc3cc(C(=O)NCc4ccc(S(N)(=O)=O)cc4)ccc3Sc3ccccc32)cc1` were 158 nM and 84%.
Regarding `CCCC1=NC2=C(CCC(C(=O)NCCN(CC)CCNc3cc(Cl)ccc3C)=C2)Sc2ccccc21`, the IC50 was 158 nM and the Emax was 113%.
Taken in the same sequence, the figures for `CCCC1=Nc2cc(C(=O)NN3CCCCC3)ccc2Sc2ccccc21` were 158 nM and 80%.
For the compound `Cc1ccsc1C1=Nc2cc(C(=O)NCc3ccncc3)ccc2Sc2ccccc21`, the IC50 was 158 nM and the Emax was determined as 92%.
As for `O=C(NCCc1cccnc1)c1ccc2c(c1)N=C(c1ccccc1Cl)c1ccccc1S2`, the IC50 was 158 nM and the Emax is 76%.
For `O=C(NN1CCOCC1)c1ccc2c(c1)N=C(c1cccc(F)c1)c1ccccc1S2` the same measures were 200 nM and 63%.
For `CC(C)CC1=Nc2cc(C(=O)NN3CCCCC3)ccc2Sc2ccccc21` the same measures were 200 nM and 90%.
Regarding `O=C(NN1CCCC1)c1ccc2c(c1)N=C(c1ccccc1F)c1ccccc1S2`, the IC50 was 200 nM and the Emax stood at 69%.
Take `O=C(c1ccc2c(c1)N=C(N1CCCCC1)c1ccccc1S2)N1CCCCC1`: the IC50 is 200 nM and the Emax turned out to be 89%.
For `CCCC1=Nc2cc(C(=O)NCCOC)ccc2Sc2ccccc21` the same measures were 200 nM and 107%.
Taken in the same sequence, the figures for `CCCCCC1=Nc2cc(C(=O)N3CCN(c4ccc(C)cc4C)CC3)ccc2Sc2ccccc21` were 200 nM and 107%.
For `CCONC(=O)c1ccc2c(c1)N=C(c1cccc(F)c1)c1ccccc1S2` the same measures were 200 nM and 81%.
Consider `CONC(=O)c1ccc2c(c1)N=C(c1ccc(Cl)cc1F)c1ccccc1S2`, for which the IC50 was 200 nM and the Emax is 69%.
Taken in the same sequence, the figures for `O=C(NNCc1ccccc1)c1ccc2c(c1)N=C(c1ccc(Cl)cc1)c1ccccc1S2` were 200 nM and 66%.
For `CCONC(=O)c1ccc2c(c1)N=C(c1sccc1C)c1ccccc1S2`, the IC50 is 200 nM and the Emax is 77%.
Taken in the same sequence, the figures for `CCONC(=O)c1ccc2c(c1)N=C(c1ccc(Cl)cc1F)c1ccccc1S2` were 200 nM and 87%.
Taken in the same sequence, the figures for `O=C(Cc1ccccc1)NNC(=O)c1ccc2c(c1)N=C(N1CCCCC1)c1ccccc1S2` were 200 nM and 69%.
